We go through 16 molecules from patent publication US20230091225A1, “Bifunctional chimeric heterocyclic compounds for targeted degradation of androgen receptors and use thereof” (HINOVA PHARMACEUTICALS INC., priority 2019, published 2023).

Common to all, as to assay type: cell-based
The subject of one assay is LNCaP/AR cells. Kind of assay: Inhibition of proliferation of LNCaP/AR prostate cancer cells (CCK-8).
Assay [1] addresses T1, androgen receptor (AR) (Homo sapiens, UniProt P10275).
T1 sequence (P10275 1-920): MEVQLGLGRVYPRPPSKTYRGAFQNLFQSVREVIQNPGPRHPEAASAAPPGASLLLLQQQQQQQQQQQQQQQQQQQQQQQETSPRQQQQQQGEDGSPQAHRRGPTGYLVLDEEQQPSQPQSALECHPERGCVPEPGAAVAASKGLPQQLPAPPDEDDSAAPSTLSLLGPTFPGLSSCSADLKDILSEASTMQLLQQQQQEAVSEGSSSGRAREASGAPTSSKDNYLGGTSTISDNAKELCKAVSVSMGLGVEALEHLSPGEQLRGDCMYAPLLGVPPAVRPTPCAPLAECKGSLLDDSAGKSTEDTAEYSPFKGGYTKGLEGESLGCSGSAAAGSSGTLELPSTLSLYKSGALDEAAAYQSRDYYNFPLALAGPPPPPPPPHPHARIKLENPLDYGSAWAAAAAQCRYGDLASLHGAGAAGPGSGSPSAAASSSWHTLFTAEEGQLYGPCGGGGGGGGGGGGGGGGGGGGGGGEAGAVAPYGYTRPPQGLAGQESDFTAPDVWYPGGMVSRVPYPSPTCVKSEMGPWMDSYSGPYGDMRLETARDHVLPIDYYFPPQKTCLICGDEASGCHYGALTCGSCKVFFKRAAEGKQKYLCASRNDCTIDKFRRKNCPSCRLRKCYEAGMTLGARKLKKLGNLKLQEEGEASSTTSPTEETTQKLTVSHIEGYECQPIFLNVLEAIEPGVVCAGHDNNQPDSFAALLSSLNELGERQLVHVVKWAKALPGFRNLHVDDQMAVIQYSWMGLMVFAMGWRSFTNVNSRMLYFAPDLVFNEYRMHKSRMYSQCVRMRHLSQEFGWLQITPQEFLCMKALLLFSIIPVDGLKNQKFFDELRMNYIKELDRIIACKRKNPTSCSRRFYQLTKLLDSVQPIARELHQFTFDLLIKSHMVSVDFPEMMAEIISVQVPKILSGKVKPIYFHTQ
The assay is described as follows: Degradation of androgen receptor (AR) protein in VCaP cells by Western blot. The following applies: percentage of degraded AR at 100 nM, VCaP cells, 16 h. In outline:
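AR and β-actin levels were read by Western blot with ECL detection, loading 30 μg lysate protein per well. Before lysis, VCaP cells seeded at 5×10^5/well and grown overnight were exposed to compound for 16 h, two wells per concentration, keeping DMSO at 0.1%.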

Assay [2] has as its target T1, androgen receptor (AR). The assay is described as follows: Degradation of androgen receptor (AR) protein in VCaP cells by ELISA. The note with it: for inhibition at 0.1 µM: read-out: % degradation. Background: In an ELISA, binding on a coated surface is turned into a signal by an enzyme label.
[3] abbreviates: proliferation of LNCap/AR cells, 6 days, CCK-8, read-out: IC50.
Where [4] appears, read: percentage of degraded AR at 100 nM, VCaP cells, 16 h, ELISA.
Where [5] appears, read: 144 h, proliferation of LNCap/AR cells, 6 days, CCK-8, read-out: IC50.

pIC50: −log10 of the molar value. Where two headings read alike, the source gives them in different places.

For orientation: pIC50 means −log10 of the IC50, conventionally taken in molar units. Molecule `CC1(C)[C@H](Oc2ccc(C#N)c(Cl)c2)C(C)(C)[C@H]1N1Cc2cc(N3CCC(CN4CCN(c5ccc6c(c5)CN(C5CCC(=O)NC5=O)C6=O)CC4)CC3)ccc2C1=O` (some centres unmarked) [Compound 248] showed a negative logarithm of the IC50 (pIC50) in the assay with LNCaP/AR cells (LNCaP/AR, 144 h) of 6.30 to 7.00. Also, the inhibition at 0.1 µM against androgen receptor (AR) [1] was under 25%.
`Cc1ncsc1-c1ccc([C@H](C)NC(=O)[C@@H]2C[C@@H](O)CN2C(=O)[C@@H](NC(=O)COCCOCC#Cc2ccc3c(c2)CN([C@H]2C(C)(C)[C@H](Oc4ccc(C#N)c(Cl)c4)C2(C)C)C3=O)C(C)(C)C)cc1` [Compound 13]: the pIC50 in the assay with LNCaP/AR cells (setting [3]) is over 7.00. At androgen receptor (AR) [2] (setting [4]), the “% degradation” value is given as “B (79%-50%)”.
As for `Cc1ncsc1-c1ccc([C@H](C)NC(=O)[C@@H]2C[C@@H](O)CN2C(=O)[C@@H](NC(=O)COCCCCCNc2ccc3c(c2)C(=O)N([C@H]2C(C)(C)[C@H](Oc4ccc(C#N)c(Cl)c4)C2(C)C)C3)C(C)(C)C)cc1` [Compound 7, (2S,4R)-1-((S)-2-(2-((5-((2-((1R,3R)-3-(3-chloro-4-cyanophenoxy)-2,2,4,4-tetramethylcyclobutyl)-3-oxoisoindolin-5-yl)amino)pentyl)oxy)acetylamino)-3,3-dimethylbutyryl)-4-hydroxy-N-((S)-1-(4-(4-methylthiazol-5-yl)phenyl)ethyl) pyrrolidine-2-carboxamide], the pIC50 in the assay with LNCaP/AR cells (setting [5]) is over 7.00. For the same molecule, at androgen receptor (AR) [2] (setting [4]), the inhibition at 0.1 µM lay within 50 to 79%.
For `Cc1ncsc1-c1ccc([C@H](C)NC(=O)[C@@H]2C[C@@H](O)CN2C(=O)[C@@H](NC(=O)COCCC#Cc2ccc3c(c2)CN([C@H]2C(C)(C)[C@H](Oc4ccc(C#N)c(Cl)c4)C2(C)C)C3=O)C(C)(C)C)cc1` [Compound 27], in that order: over 7.00 and 50 to 79%.
The corresponding values for `Cc1ncsc1-c1ccc([C@H](C)NC(=O)[C@@H]2C[C@@H](O)CN2C(=O)[C@@H](NC(=O)CCn2cc(C#Cc3ccc4c(c3)CN([C@H]3C(C)(C)[C@H](Oc5ccc(C#N)c(Cl)c5)C3(C)C)C4=O)cn2)C(C)(C)C)cc1` [Compound 42] are over 7.00 and 50 to 79%.
`CC(=O)O[C@@H]1C[C@@H](C(=O)N[C@@H](CO)c2ccc(-c3scnc3C)cc2)N(C(=O)[C@@H](NC(=O)COCCCCC#Cc2ccc3c(c2)CN([C@H]2C(C)(C)[C@H](Oc4ccc(C#N)c(Cl)c4)C2(C)C)C3=O)C(C)(C)C)C1` [Compound 49, (3R,5S)-1-((S)-2-(2-((6-(2-(((1r,3r)-3-(3-chloro-4-cyanophenoxy))-2,2,4,4-tetramethylcyclobutyl)-1-oxoisoindolin-5-yl)hex-5-yn-1-yl)oxy)acetamido)-3,3-dimethylbutyryl)-5-(((R)-2-hydroxy-1-(4-(4-methylthiazol-5-yl)phenyl)ethyl)carbamoyl)pyrrolidin-3-yl acetate]: the pIC50 in the assay on LNCaP/AR cells (LNCaP/AR, 144 h) is over 7.00. The inhibition at 0.1 µM on androgen receptor (AR) [2] (setting [4]) is 25 to 49%.
In the case of `Cc1ncsc1-c1ccc([C@H](C)NC(=O)[C@@H]2C[C@@H](O)CN2C(=O)[C@@H](NC(=O)CN2CC(CC#Cc3ccc4c(c3)CN([C@H]3C(C)(C)[C@H](Oc5ccc(C#N)c(Cl)c5)C3(C)C)C4=O)C2)C(C)(C)C)cc1` [Compound 43], in the assay with LNCaP/AR cells (setting [5]), the negative logarithm of the IC50 (pIC50) was over 7.00. For the same molecule, the inhibition at 0.1 µM on androgen receptor (AR) [2] (setting [4]) lay in the range of 50 to 79%.
The corresponding values for `Cc1ncsc1-c1ccc([C@H](C)NC(=O)C2C[C@@H](O)CN2C(=O)[C@@H](NC(=O)COCCN2CCN(c3ccc4c(c3)CN([C@H]3C(C)(C)[C@H](Oc5ccc(C#N)c(Cl)c5)C3(C)C)C4=O)CC2)C(C)(C)C)cc1` (stereo partly drawn) [Compound 3, (2S,4R)-1-((S)-2-(2-(2-(4-(2-((1R,3R)-3-(3-chloro-4-cyanophenoxy)-2,2,4,4-tetramethylcyclobutyl)-1-oxoisoindolin-5-yl)piperazin-1-yl)ethoxy)acetylamino)-3,3-dimethylbutyryl)-4-hydroxy-N-((S)-1-(4-(4-methylthiazol-5-yl)phenyl)ethyl)pyrrolidine-2-carboxamide] are 6.30 to 7.00 and 50 to 79%.
For `CC1(C)[C@H](Oc2ccc(C#N)c(Cl)c2)C(C)(C)[C@H]1N1Cc2cc(C#CC3CCN(C4CCN(c5cc6c(cc5F)C(=O)N(C5CCC(=O)NC5=O)C6=O)CC4)CC3)ccc2C1=O` (some centres unmarked) [Compound 51], in that order: 6.30 to 7.00 and 50 to 79%.
As for “(2R,4R)-1-((S)-2-(2-((5-((2-((1r,3r)-3-(4-cyano-3-(trifluoromethyl) phenoxy)-2,2,4,4-tetramethylcyclobutyl)-1-oxoisoindolin-5-yl)amino)phenyl)oxy) acetylamino)-3,3-dimethylbutyryl)-4-hydroxy-N-((R)-1-(4-(4-methylthiazol-5-yl)phenyl)ethyl)pyrrole-2-formamide [Compound 16]”, the negative-log IC50 (pIC50) in the assay with LNCaP/AR cells (setting [3]) was over 7.00. Moreover, the “% degradation” value on androgen receptor (AR) [2] is recorded as “C (key: A: >80%; B: 79%-50%; C: 49%-25%; D: <25%)”.
For `[2H]C([2H])([2H])N(C(=O)c1ccc(C#CCCCCCOCC(=O)N[C@H](C(=O)N2C[C@H](O)C[C@H]2C(=O)N[C@@H](C)c2ccc(-c3scnc3C)cc2)C(C)(C)C)cc1)[C@H]1C(C)(C)[C@H](Oc2ccc(C#N)c(Cl)c2)C1(C)C` [Compound 24], the pIC50 in the assay with LNCaP/AR cells (setting [5]) was over 7.00. Further, the inhibition at 0.1 µM on androgen receptor (AR) [2] (setting [4]) lay within 50 to 79%.
`[2H]C([2H])([2H])N(C(=O)c1ccc(C#CCCCCOCC(=O)N[C@H](C(=O)N2C[C@H](O)C[C@H]2C(=O)N[C@@H](C)c2ccc(-c3scnc3C)cc2)C(C)(C)C)nc1)[C@H]1C(C)(C)[C@H](Oc2ccc(C#N)c(Cl)c2)C1(C)C` [Compound 33]: the pIC50 in the assay on LNCaP/AR cells (setting [5]) is 6.30 to 7.00. At androgen receptor (AR) [2] (setting [4]), the inhibition at 0.1 µM stood at 0%.
`CC(=O)O[C@@H]1C[C@@H](C(=O)N[C@@H](C)c2ccc(-c3scnc3C)cc2)N(C(=O)[C@@H](NC(=O)COCCCCCNc2ccc3c(c2)C(=O)N([C@H]2C(C)(C)[C@H](Oc4ccc(C#N)c(Cl)c4)C2(C)C)C3)C(C)(C)C)C1` [Compound 6, (3R,5S)-1-((S)-2-(2-((5-((2-((1R,3R)-3-(3-chloro-4-cyanophenoxy)-2,2,4,4-tetramethylcyclobutyl)-3-oxoisoindolin-5-yl)amino)pentyl)oxy)acetylamino)-3,3-dimethylbutyryl)-5-(((S)-1-(4-(4-methylthiazol-5)-yl)phenyl)ethyl)carbamoyl) pyrrolidin-3-yl acetate] gave a pIC50 in the assay with LNCaP/AR cells (LNCaP/AR, 144 h) of over 7.00. Further, the inhibition at 0.1 µM at androgen receptor (AR) [2] (setting [4]) was 50 to 79%.
With “(2S,4R)-1-((S)-2-(4-(4-((2-((1r,3r)-3-(3-chloro-4-cyanophenoxy)-2,2,4,4-tetramethylcyclobutyl)-1-oxoisoindolin-5-yl)ethynyl)-1H-pyrazol-1-yl)butylamino)-3,3-dimethylbutanol)-4-hydroxy-N-((S)-1-(4-methylthiazol-5-yl)phenyl)ethyl)pyrrolidine-2-carboxamide [Compound 35]”, in the assay on LNCaP/AR cells (setting [3]), the pIC50 was over 7.00. For the same molecule, on androgen receptor (AR) [2], the “% degradation” value is recorded as “B (key: A: >80%; B: 79%-50%; C: 49%-25%; D: <25%)”.
In the assay with LNCaP/AR cells (LNCaP/AR, 144 h), `CC(=O)O[C@@H]1CC(C(=O)NC2(c3ccc(-c4scnc4C)cc3)CC2)N(C(=O)[C@@H](NC(=O)COCCCCCNc2ccc(C(=O)N[C@H]3C(C)(C)[C@H](Oc4ccc(C#N)c(Cl)c4)C3(C)C)cc2)C(C)(C)C)C1` (stereo partly drawn) [Compound 46, (3R,5S)-1-((S)-2-(2-((5-((4-(((1r,3r)-3-(3-chloro-4-cyanophenoxy)-2,2,4,4-tetramethylcyclobutyl)carbamoyl)phenyl)amino)pentyl)oxy)acetamido)-3,3-dimethylbutanol)-5-((1-(4-methylthiazol-5-yl)phenyl)cyclopropyl)carbamoyl) pyrrolidin-3-yl acetate] gave a pIC50 of over 7.00. Besides, the inhibition at 0.1 µM on androgen receptor (AR) [2] (VCaP, 16 h) fell in the range of 25 to 49%.
`CC(=O)O[C@@H]1C[C@@H](C(=O)N[C@@H](C)c2ccc(-c3scnc3C)cc2)N(C(=O)[C@@H](NC(=O)COCCOCC#Cc2ccc3c(c2)CN([C@H]2C(C)(C)[C@H](Oc4ccc(C#N)c(Cl)c4)C2(C)C)C3=O)C(C)(C)C)C1` [Compound 12, (3R,5S)-1-((S)-2-(2-(2-((3-(2-((1r,3r)-3-(3-chloro-4-cyanophenoxy)-2,2,4,4-tetramethylcyclobutyl)-1-oxoisoindolin-5-yl)prop-2-yn-1-yl)oxy)propoxy)acetylamino)-3,3-dimethylbutyryl)-5-((((S)-1-acetic acid (4-(4-methylthiazol-5-yl)phenyl)ethyl)carbamoyl)pyrrolidin-3-yl acetate]: in the assay with LNCaP/AR cells (LNCaP/AR, 144 h), the pIC50 was over 7.00. In addition, the inhibition at 0.1 µM at androgen receptor (AR) [2] (setting [4]) is 50 to 79%.
